{"source": "patent US9629830B2", "about": "“EphA4 inhibitors as neuroprotective agents” (The Hong Kong University of Science and Technology, priority 2013, dated 2017)", "key": {"EphA4 [1]": {"target": "EphA4 (Homo sapiens, UniProt P54764)", "sequence (P54764 20-986, species assumed)": "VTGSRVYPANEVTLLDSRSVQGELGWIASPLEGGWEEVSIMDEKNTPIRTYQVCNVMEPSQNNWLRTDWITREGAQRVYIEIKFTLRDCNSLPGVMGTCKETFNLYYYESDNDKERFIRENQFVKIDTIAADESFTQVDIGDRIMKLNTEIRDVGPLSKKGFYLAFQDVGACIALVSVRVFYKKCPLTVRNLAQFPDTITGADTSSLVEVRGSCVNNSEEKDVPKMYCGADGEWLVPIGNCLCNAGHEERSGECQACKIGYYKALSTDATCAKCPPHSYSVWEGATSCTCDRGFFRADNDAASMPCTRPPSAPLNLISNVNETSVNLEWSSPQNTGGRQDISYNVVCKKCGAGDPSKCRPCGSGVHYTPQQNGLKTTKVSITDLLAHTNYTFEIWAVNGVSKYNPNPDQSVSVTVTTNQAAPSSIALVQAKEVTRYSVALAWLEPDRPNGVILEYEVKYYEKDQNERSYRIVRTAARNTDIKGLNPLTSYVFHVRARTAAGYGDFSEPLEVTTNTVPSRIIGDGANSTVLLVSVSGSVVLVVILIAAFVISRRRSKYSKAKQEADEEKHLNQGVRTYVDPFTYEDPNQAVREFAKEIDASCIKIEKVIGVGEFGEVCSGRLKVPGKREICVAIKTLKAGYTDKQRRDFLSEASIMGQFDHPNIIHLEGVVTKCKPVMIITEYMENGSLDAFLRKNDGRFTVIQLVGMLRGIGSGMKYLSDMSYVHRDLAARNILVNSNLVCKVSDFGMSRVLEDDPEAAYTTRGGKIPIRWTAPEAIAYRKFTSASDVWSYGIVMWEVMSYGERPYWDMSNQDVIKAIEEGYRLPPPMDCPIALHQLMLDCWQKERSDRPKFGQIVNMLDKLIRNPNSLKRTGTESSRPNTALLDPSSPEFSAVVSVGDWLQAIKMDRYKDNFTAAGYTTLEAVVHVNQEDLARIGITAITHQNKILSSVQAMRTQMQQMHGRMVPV", "assay": "Inhibition of EphA4 signaling (assay not specified)"}, "[2]": {"system": "Aβ-induced reduction of neurotransmission in hippocampal neurons", "assay": "mEPSC recording in Aβ-treated cultured hippocampal neurons", "format": "cell-based, rat", "procedure": "Primary cortical and hippocampal neurons were prepared from embryonic day 18-19 rat embryos as described previously^24. Briefly, cortical neurons (6×10^6 per plate) were plated on 100-mm culture dishes coated with poly-D-lysine (12.5 μg/mL; Sigma). Rat hippocampal neurons were seeded on 18-mm coverslips coated with poly-D-lysine (50 μg/mL) at a density of 0.5×10^5/18-mm coverslip for immunocytochemical analysis, 0.1×10^5/18-mm coverslip for growth cone collapse assay, or 1×10^5 or 1.5×10^5/18-mm coverslip for mEPSC recording. Neurons were fed Neurobasal medium (Invitrogen) supplemented with 2% B27 (Invitrogen). Acute brain slices were prepared from P15-P17 Sprague-Dawley rats. Briefly, the rats were rapidly decapitated, and their brains were immersed in ice-cold artificial cerebrospinal fluid (ACSF). The hippocampus was dissected, and 300-μm-thick slices were prepared using a vibratome (Lieca). The slices were then transferred into an incubating chamber containing circulating ACSF equilibrated with 95% O2+5% CO2 and held at room temperature for at least 2 h for recovery prior to experiments^65.\nFor miniature EPSC recordings, hippocampal neurons at ˜25-28 DIV were co-treated with or without 500 nM Aβ together with the testing reagents for 24 h. Whole-cell patch-clamp recordings were made at room temperature with external solution containing (in mM) 110 NaCl, 5 KCl, 2 CaCl2, 0.8 MgCl2, 10 HEPES, and 10 D-glucose (pH 7.4) as well as an internal solution containing (in mM) 135 CsCl2, 10 HEPES, 2 MgCl2, 4 NaATP, 0.4 NaGTP, and 0.5 EGTA (pH 7.2)^24,27. Picrotoxin ([…]) was included in the external solution to block GABAergic IPSCs along with 0.5 μM TTX to prevent action potential-evoked EPSCs. For miniature EPSC recordings, cells were held at −70 mV. The pipette resistances for these experiments were typically 3-5 MΩ, while series resistances were 15-20 MΩ. The minis from each cell was recorded for 1 min in each condition. The measurement of mEPSC was according to that described in Mini Analysis Program for measuring AMPA receptor EPSCs (Synaptosoft Inc.). Only recording epochs in which series and input resistances varied <10% were analyzed. Data are presented as the mean±SEM of at least 3 experiments."}, "EphA4 (HT-22 cells)": {"target": "T1, EphA4 (HT-22 cells) (Mus musculus, UniProt Q03137)", "T1 construct": "HT-22 cells, a cell line that expresses EphA4; endogenous in cells; host or cells: HT-22 cells", "T1 sequence (Q03137 20-986)": "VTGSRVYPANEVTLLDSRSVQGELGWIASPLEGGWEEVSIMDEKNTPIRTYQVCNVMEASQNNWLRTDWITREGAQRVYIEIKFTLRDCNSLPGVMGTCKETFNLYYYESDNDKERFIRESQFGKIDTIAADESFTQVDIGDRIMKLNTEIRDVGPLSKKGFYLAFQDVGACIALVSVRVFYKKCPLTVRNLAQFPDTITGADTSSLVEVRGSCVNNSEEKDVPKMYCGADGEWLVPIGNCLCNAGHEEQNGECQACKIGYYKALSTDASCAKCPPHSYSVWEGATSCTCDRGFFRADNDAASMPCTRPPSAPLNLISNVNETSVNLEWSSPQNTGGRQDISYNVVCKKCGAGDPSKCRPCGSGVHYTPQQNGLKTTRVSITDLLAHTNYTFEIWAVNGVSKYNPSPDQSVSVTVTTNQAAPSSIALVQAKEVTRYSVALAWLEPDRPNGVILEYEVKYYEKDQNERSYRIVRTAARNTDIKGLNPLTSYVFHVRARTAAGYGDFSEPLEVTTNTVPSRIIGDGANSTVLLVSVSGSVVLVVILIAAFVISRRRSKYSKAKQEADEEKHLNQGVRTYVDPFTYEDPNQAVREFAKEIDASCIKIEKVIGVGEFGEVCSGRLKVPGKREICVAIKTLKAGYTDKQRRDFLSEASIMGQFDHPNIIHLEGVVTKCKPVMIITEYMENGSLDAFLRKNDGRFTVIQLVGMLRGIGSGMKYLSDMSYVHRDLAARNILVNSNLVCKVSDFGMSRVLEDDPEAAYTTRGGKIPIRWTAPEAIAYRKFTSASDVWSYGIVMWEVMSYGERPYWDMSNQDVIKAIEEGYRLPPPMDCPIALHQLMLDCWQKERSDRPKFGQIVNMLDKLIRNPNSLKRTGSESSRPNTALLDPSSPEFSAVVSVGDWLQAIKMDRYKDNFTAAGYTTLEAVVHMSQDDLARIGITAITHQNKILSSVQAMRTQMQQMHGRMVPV", "assay": "Cell-based binding of biotinylated ephrin-A1 to the surface of HT-22 cells", "conditions": "10 min pre-incubation; Rhy 300 μM, KYL 100 μM (FIG. 10); biotinylated ephrin-A1 0.5 μg/mL", "procedure": "HT-22 cells were seeded on poly-D-lysine coverslips. […] The cells were then fixed with 4% paraformaldehyde and then immunostained with Alexa Fluor 488-conjugated Streptavidin antibody (Molecular Probes) for surfacing labeling of biotinylated ephrin-A1."}, "EphA4 [3]": {"target": "T2, EphA4 (Rattus norvegicus, UniProt D3ZZK3)", "T2 construct": "endogenous in cells; host or cells: primary rat cortical neurons (A5), primary rat hippocampal neurons (A7)", "T2 sequence (D3ZZK3 20-986)": "as the sequence (Q03137 20-986) above, with S270T, K559Q, S874P counted along it", "assay": "Aβ-stimulated EphA4 tyrosine phosphorylation in acute hippocampal slices", "format": "cell-based", "conditions": "KYL 0.5 h pretreatment then Aβ 2 h", "procedure": "Hippocampal synaptosomes were prepared as described previously^67. Acute hippocampal slices from P15-P17 rats were lysed in radioimmunoprecipitation assay (RIPA) buffer (1% Triton X-100, 1% sodium deoxycholate, 0.1% SDS, 150 mM NaCl, 10 mM sodium phosphate, 2 mM EDTA, and 0.2% sodium vanadate) with various protease inhibitors. For the Cdk5 kinase assay, cultured cortical neurons [16 days in vitro (DIV)] were lysed in lysis buffer A (20 mM Tris [pH 7.6], 150 mM NaCl, 1 mM EDTA, 1 mM EGTA, 1 mM NaF, and 0.5% Nonidet P-40) with various protease inhibitors. Western blot analysis was performed as described previously^24.\nFor the immunoprecipitation assay, lysates were immunoprecipitated with the corresponding antibody for 2 h at 4° C. followed by incubation with protein G Sepharose for 1 h at 4° C.^24. The samples were washed with RIPA buffer or buffer A and resuspended in SDS sample buffer. EphA4 tyrosine phosphorylation was detected by western blot analysis using 4G10 antibody."}, "[4]": {"system": "Aβ-induced impairment of hippocampal LTP", "assay": "HFS-induced LTP (fEPSP slope) in acute hippocampal slices treated with Aβ", "format": "cell-based, mouse", "procedure": "Oligomeric Aβ (Aβ) was prepared as described previously^59,60. Briefly, 0.5 mg monomeric Aβ1-42 was dissolved in 22.2 μL dry DMSO and then diluted in ice-cold phenol-red free F-12 medium to yield a final Aβ concentration of 100 μM. The Aβ solution was incubated at 4° C. for 24 h and then centrifuged at 14,000×g for 10 min. The supernatant was frozen in liquid nitrogen and stored at −20° C. for up to 1 month. Unless specified, cultured neurons or hippocampal slices were typically treated with Aβ at 500 nM.\n(§1) For LTP recordings, mouse brains were immediately dissected after sacrifice and soaked in ice-cold 95% O2/5% CO2 (aCSF)^58. Brain slices (300 μm thick) were prepared using a vibrating tissue slicer (HM650V; Thermo), and soaked in oxygenated buffer for 2 h at 32° C. The hippocampal regions were resected and placed at the center of a MED-P210A probe (Panasonic International Inc) with 64 embedded recording electrodes. The slices were then perfused with Aβ at 500 nM in oxygenated aCSF for 2 h before LTP induction^70. For treatment with EphA4 inhibitors, the slices were pretreated with peptides or chemicals for 1 h before application of Aβ. fEPSPs were recorded using a MED64 multichannel recording system, and the data were collected from the dendritic layer of area CA1 at a sampling rate of 10 kHz. For each slice, the baseline stimulus intensity was set at the level that elicited ˜50% of the maximum fEPSP response determined according to the input-output curve. LTP was induced by 3 trains of HFS (100 Hz, 1 s, delivered 30 s apart). The magnitude of LTP was quantified as a percentage change in the fEPSP slope (10%-90%) taken during the 60-min interval after LTP induction."}, "[5]": {"system": "Aβ-triggered reduction of dendritic spines in hippocampal neurons", "assay": "Dendritic spine analysis in Aβ-treated hippocampal neurons", "format": "cell-based, rat", "procedure": "Cultured rat hippocampal neurons were transfected with GFP plasmid at 14-16 DIV and exposed to Aβ at 24-28 DIV for 24 h after treatment with 30 μM KYL peptide. The neurons were fixed with 4% paraformaldehyde and examined using confocal microscopy using a 63× objective lens as previously described^24."}, "APP/PS1 mutant mice": {"system": "APP/PS1 mutant mice", "assay": "HFS-induced hippocampal LTP in WT and APP/PS1 mice after in vivo treatment", "design": "species or system mouse", "conditions": "KYL infused by osmotic pump (17 μg, ~3 weeks)", "from_the_text": "APP/PS1 double-transgenic mice were obtained from Jackson Laboratory (B6C3-Tg[APPswe, PSEN1dE9]85Dbo/J)^66. These mice were generated by incorporating a human/murine APP construct bearing the Swedish double mutation and the exon-9-deleted PSEN1 mutation (APPswe+PSEN1/dE9). APP transgenic mice (Tg2576) expressing a double mutant of human AβPP (Lys^670→Asn^670, Met^671→Leu^671) were also used^31. Both sexes were used for experiments, and all mice used in this study were produced by the Animal Care Facility of The Hong Kong University of Science and Technology. The genotype was confirmed by polymerase chain reaction analysis of tail biopsies. Four to five mice of the same sex were housed in a cage with food and water ad libitum with a 12-hour light/dark cycle.\nTo investigate the effect of blocking EphA4 signaling by KYL peptide in AD mice, 4-5-month-old AD transgenic mice were implanted with Alzet mini-osmotic pumps, model 1004, pumping its contents at 0.11 μL/h for 28 days. Pumps were loaded with either 0.23 μg/μL KYL peptide (17 μg) or vehicle solvent in artificial cerebrospinal fluid (CSF). The mini-osmotic pumps were adjusted intracerebroventricularly in the right hemisphere. EphA4 in the CA1 regions of APP/PS1 mice was knocked down by injecting vesicular stomatitis virus glycoprotein G-pseudotyped lentiviral particles with pFUGW-shEphA4 bilaterally into the corresponding regions as described previously^58.\nas §1, with “The hippocampal regions were resected and placed at the center of a MED-P210A probe (Panasonic International Inc) with 64 embedded recording electrodes. The slices were then perfused with Aβ at 500 nM in oxygenated aCSF for 2 h before LTP induction^70.” left out, “LTP was induced by 3 trains of HFS (100 Hz, 1 s, delivered 30 s apart).” left out\nWT and APP/PS1 mutant (Tg) mice were orally administered with corylin ([…]) by daily gavage for 3-4 weeks prior to LTP measurements. LTP induced by 3 trains of HFS (100 Hz for 1 s delivered 30 s apart) in the CA1 region of the SC pathway of the hippocampus was measured. The magnitude of LTP was quantified as the percentage change in the fEPSP slope (10-90%) taken during the 60-min interval after LTP induction."}, "[6]": {"system": "EphA4-dependent growth cone collapse in hippocampal neurons", "assay": "EphA4-dependent (ephrin-A1-stimulated) growth cone collapse assay", "format": "cell-based, rat", "conditions": "for ephrin-A1-stimulated growth cone collapse: cultured hippocampal neurons", "procedure": "Ephrin-A1-Fc was pre-clustered with goat anti-human Fc antibody (1:4.5)^24 and incubated at room temperature for 60 min before use. The growth cone collapse assay was performed in hippocampal neurons with ephrin-A1 0.1 μg/mL as described previously^61.\nFor EphA4 clustering, neurons were stained with anti-EphA4 and anti-Tau-1 antibodies. For the growth cone collapse assay, neurons were stained with Alexa Fluor 555-conjugated phalloidin (Molecular Probes) for filamentous actin and anti-Tau-1 antibody for axons. Collapsed growth cones were scored in a double-blinded manner. The experiments were repeated at least 3 times, and >50 neurons were analyzed for each experiment. Data are presented as mean±SEM.\nTo screen for small molecule EphA4 inhibitors, the inventors performed a molecular docking analysis using a small molecule library. […] Their ability in inhibiting EphA4 inhibiting the EphA4-dependent growth cone collapse using cultured hippocampal neurons was performed."}, "[7]": {"target": "T3, extracellular domain of EphA4 (Homo sapiens, UniProt P54764)", "T3 construct": "purchased R&D Systems", "T3 sequence (P54764 20-547 limits assumed)": "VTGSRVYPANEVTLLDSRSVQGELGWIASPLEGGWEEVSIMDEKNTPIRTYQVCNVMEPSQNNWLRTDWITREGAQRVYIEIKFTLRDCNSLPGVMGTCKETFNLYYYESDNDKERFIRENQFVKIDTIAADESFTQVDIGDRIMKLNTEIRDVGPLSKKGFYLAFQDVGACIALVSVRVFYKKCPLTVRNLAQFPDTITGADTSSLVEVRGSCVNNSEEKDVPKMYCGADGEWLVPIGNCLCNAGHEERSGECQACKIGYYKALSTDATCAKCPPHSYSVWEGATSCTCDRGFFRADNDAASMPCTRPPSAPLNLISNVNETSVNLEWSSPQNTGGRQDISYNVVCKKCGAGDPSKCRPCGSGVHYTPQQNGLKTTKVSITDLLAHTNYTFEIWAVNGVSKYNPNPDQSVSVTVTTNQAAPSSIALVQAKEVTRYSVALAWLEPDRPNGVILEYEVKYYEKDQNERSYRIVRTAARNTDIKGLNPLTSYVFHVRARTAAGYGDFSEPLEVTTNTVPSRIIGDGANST", "assay": "In vitro pull-down of recombinant EphA4-Fc with biotinylated Rhy on streptavidin beads", "format": "binding", "conditions": "western blot", "procedure": "For the pull-down analysis, Bio-Rhy was bound to streptavidin magnetic beads for 1 h, the beads was then incubated with recombinant EphA4-Fc or EphB2-Fc in the presence of 0.5% BSA for 1 h. After incubation, the beads were washed 4 times with DPBS and the presence of Eph in the complex was determined by western blot analysis."}, "[8]": {"conditions": "inhibitor (Cpd1 500 μM, Ros 10 μM) + Aβ, Aβ alone 818.1±28.2 ms"}, "[9]": {"conditions": "inhibitor alone (Cpd1 500 μM, Ros 10 μM), control 454.1±12.5 ms"}}, "data": [{"compound": "CC[C@H]1CN2CC[C@@]3(C(=O)Nc4ccccc43)[C@@H]2C[C@@H]1/C(=C\\OC)C(=O)OC", "note": "[IsoRhy, isorhynchophylline]", "values": [{"measurement": "inhibition of EphA4 signaling", "setting": "EphA4 [1]", "result": "inactive in inhibiting EphA4 signaling"}]}, {"compound": "CC[C@H](CO)Nc1nc(NCc2ccccc2)c2ncn(C(C)C)c2n1", "note": "[Ros, roscovitine]", "values": [{"measurement": "mEPSC inter-event interval", "setting": "[2]; [8]", "result": "494.1 ± 11.7", "unit": "ms"}, {"measurement": "mEPSC inter-event interval", "setting": "[2]; [9]", "result": "451.0 ± 11.2", "unit": "ms"}]}, {"compound": "KYLPYWPVLSSL [KYL peptide, reference compound]", "values": [{"measurement": "binding of ephrin-A1 to HT-22 cells", "setting": "EphA4 (HT-22 cells)", "result": "reduced the binding of ephrin-A1 to HT-22 cells"}, {"measurement": "Aβ-stimulated tyrosine phosphorylation of EphA4", "setting": "EphA4 [3]", "result": "abolished the Aβ-stimulated tyrosine phosphorylation of EphA4"}, {"measurement": "mean fEPSP slope, last 10 min after LTP induction", "setting": "[4]; KYL peptide 100 μM + Aβ, Aβ alone 132±6.06%", "result": "174.9±9.0", "unit": "%"}, {"measurement": "mean fEPSP slope, last 10 min after LTP induction", "setting": "[4]; KYL peptide 100 μM alone, control 169±6.72%", "result": "164.6±5.7", "unit": "%"}, {"measurement": "dendritic spine density", "setting": "[5]; KYL peptide alone (30 μM), control 0.66±0.1/μm", "result": "0.55±0.13 /μm"}, {"measurement": "dendritic spine density", "setting": "[5]; co-treatment of Aβ (24 h) and KYL peptide (30 μM), Aβ alone 0.46±0.21/μm", "result": "0.61±0.18 /μm"}, {"measurement": "mean fEPSP slope, last 10 min after LTP induction", "setting": "APP/PS1 mutant mice; APP/PS1 (Tg) mice, Tg Con 154.0±8.2%", "result": "181.9±8.6", "unit": "%"}, {"measurement": "mean fEPSP slope, last 10 min after LTP induction", "setting": "APP/PS1 mutant mice; WT mice, WT Con 191.8±9.5%", "result": "190.1±6.9", "unit": "%"}]}, {"compound": "Cc1ccc(C)n1-c1ccc(C(=O)O)c(O)c1", "note": "[Cpd1, 2-hydroxy-4-(2,5-dimethyl-1-pyrrolyl)benzoic acid, reference compound]", "values": [{"measurement": "ephrin-A1-stimulated growth cone collapse", "setting": "[6]", "result": "also inhibited ephrin-A1-stimulated growth cone collapse"}, {"measurement": "concentration at which ephrin-A1-stimulated growth cone collapse is inhibited", "setting": "[6]; data not shown", "result": "exceeding 10 μM"}, {"measurement": "mEPSC inter-event interval", "setting": "[2]; [8]", "result": "542.6 ± 15.4", "unit": "ms"}, {"measurement": "mEPSC inter-event interval", "setting": "[2]; [9]", "result": "559.5 ± 16.6", "unit": "ms"}]}, {"compound": "CCC1CN2CCC3(C(=O)N(CCCCCCNC(=O)CCCCC4SCC5NC(=O)NC54)c4ccccc43)C2CC1C(=COC)C(=O)OC", "note": "(centres unmarked) [Bio-Rhy]", "values": [{"measurement": "binding to the extracellular domain of EphA4 (pull-down, words)", "setting": "[7]", "result": "bound specifically to the extracellular domain of EphA4"}]}, {"compound": "CC(C)[C@@H]1[C@H]2OC(=O)[C@@H]1[C@@H]1CC[C@@H]3CN(C)[C@H]2[C@@]31C", "note": "[Dendrobine, dendrobine]", "values": [{"measurement": "ephrin-A1-stimulated growth cone collapse", "setting": "[6]", "result": "inhibited ephrin-A1-stimulated growth cone collapse"}]}]}
